Literature values as cited in patent US20220346436A1, “ORALLY DISSOLVING FILMS” (NICOVENTURES TRADING LIMITED, priority 2021, published 2022).

Experiments:
[1] = water / aqueous environment (e.g., saliva)
[2] = when isolated; isomerises to trans-bixin

SMILES | solubility [1] | logP value | chemical stability [2]
CC(/C=C/C=C(C)/C=C/C(=O)O)=C\C=C\C=C(C)\C=C\C=C(C)\C=C\C(=O)O (stereo in doubt) [norbixin, (2E,4E,6E,8E,10E,12E,14E,16E,18E)-4,8,13,17-tetramethylicosa-2,4,6,8,10,12,14,16,18-nonaenedioic acid] | water soluble | – | –
C=C(C)[C@@H]1CCC(C)=C[C@H]1c1c(O)cc(CCCCC)cc1O [CBD, cannabidiol, reference compound] | insoluble in an aqueous environment | about 6.5 | –
COC(=O)/C=C/C(C)=C\C=C\C(C)=C\C=C\C=C(C)\C=C\C=C(C)\C=C\C(=O)O [bixin, (2E,4E,6E,8E,10E,12E,14E,16Z,18E)-20-methoxy-4,8,13,17-tetramethyl-20-oxoicosa-2,4,6,8,10,12,14,16,18-nonaenoic acid] | insoluble in water | – | chemically unstable when isolated
